Source: publication PMC11288129, “Diversely evolved xibalbin variants from remipede venom inhibit potassium channels and activate PKA-II and Erk1/2 signaling” (BMC Biology, 2024)

What was measured:
Format in all cases: cell-based
[1] = tested on: PKA-II (phospho-RIIα/β) in rat DRG neurons; experiment: High-content imaging of PKA-II activity (pRII) in DRG sensory neurons
Experimental: (§1) To gauge sensory neuron activity in response to various activating stimuli, including electrical activity, phosphorylation state detection of protein kinase A type II (PKA-II) and MAP kinase Erk1/2 can act as surrogate measurements. Consequently, we tested for increased phosphorylation states in a concentration-dependent manner following exposure to xibalbins. Dissociated DRG neurons were cultured overnight and then exposed to increasing concentrations of the corresponding xibalbins for 5 min and 30 min, respectively. As a positive control, forskolin (Fsk) was also used to induce cAMP synthesis. The activity of PKA-II was monitored by antibodies directed against the phosphorylation site of the inhibitory regulatory subunits RIIα/β, which is exclusively accessible when the catalytic kinase domain is released during kinase activation. For measuring Erk1/2 activity, phospho-sites on Erk1/2 (T202/Y204) were monitored through immunofluorescence, as these sites are phosphorylated during activation. Cellular images were captured using HCI microscopy (Fig. 8A), and the average intensity of each phospho-antibody was quantified (Fig. 8B).
(§2) Fig. 8 A Representative images of rat DRG neurons stimulated with PBS (Ctrl) and xib1b (0.8 µg/µL). Cells were stained for UCHL1, pRII, pERK1/2, and Hoechst followed by fixation and staining with standard immunocytochemistry protocols. Green-encircled neurons indicate automatically selected objects. Scale bar: 100 µm. B Mean intensities of UCHL1, pRII, and pERK1/2. The same UCHL1 intensities were observed among tested groups. Forskolin (Fsk), an activator of adenylyl cyclase, was used as a positive control. Fsk at 6 µM concentration induced an increase in pRII and pERK1/2 intensities at 5 and 30 min. Number of analyzed cells per replica: 750 ± 200. Eight independent replicas. C–F Concentration responses of xibalbin toxins (0.005 to 0.8 µg/µL) and mean intensities of pRII and pERK1/2 at 5 min and 30 min. G–H Size versus pRII and pErk1/2 intensities of cells treated with 0.8 µg/µL of xib1 and xib13. Small-sized cells were responding to xibalbins. Statistical significance was assessed using one-way ANOVA with Dunnett’s post hoc test. Data represent mean ± S.E.M (standard error of the mean), n = 4, see “Methods” for details and Additional File 6: Table S2 for individual data values
(§3) Male Sprague Dawley rats (250–400 g, 8–16 weeks old) were obtained from Envigo. Rats were kept in 12 h of light/darkness cycles. All experiments were performed in accordance with the German animal welfare law with permission of the District Government for Nature and Environment, NRW (84–02.05.20.13.045, 4.18.003). Rats were scarified by slow inhalation of CO2 which was followed by decapitation. DRGs were extracted from rats, deheated, pooled, and incubated in Neurobasal A/B27 medium (Invitrogen, #12349–015) supplemented with B-27 (Invitrogen #17504), L-glutamine 1:400, L-glutamate 1:270.3, and penicillin/streptomycin 1:100 containing 0.2 U/mL collagenase P (collagenase P, Roche, #1213857) and incubated for 1 h at 37 °C, 5% CO2. DRGs were dissociated with pasteur pipettes and axon stumps were separated by BSA (Sigma-Aldrich, # A2153-100G) gradient centrifugation (14% BSA, 120 g, 8 min). Cells were resuspended in NBA medium, plated in 96-well imaging plate (Greiner BioOne Sensoplate, Black, #655896) precoated with poly-L-ornithine hydrochloride (0.1 mg/ml Sigma, #P2533)/laminin (5 µg/ml Invitrogen, #23017–015), and incubated overnight at 37 °C, 5% CO2.
(§4) DRGs were stimulated after overnight incubation. Compounds were prepared as tenfold concentrated stock solutions, diluted in PBS (PAA, cat# H15-002), in v-bottom plates; 50 µL media from culture wells were mixed with the […] stock solutions, and 50 µL added back to the respective wells. Stimulation was performed with automated multichannel pipette and cells were kept in heated block during the stimulation. […]

[2] = tested on: Erk1/2 (T202/Y204) in rat DRG neurons; experiment: High-content imaging of pERK1/2 in DRG sensory neurons; conditions: positive control Fsk 6 µM; 5 and 30 min
Experimental: as §1, §2, §3, §4

[3] = tested on: HEK293T cells; experiment: Ca2+ influx induction, Fluo-8 calcium imaging; conditions: HEK293 cells
Experimental: We examined the potential of xibalbins in a concentration range of 0.25 to 25 µg/ml regarding their effects on Ca^2+ influx in HEK293 cells, which express calcium channels. […] However, exposure to none of the four xibalbin variants by itself did increase [Ca^2+]i as measured by Fluo-8 calcium imaging assay. Additionally, none of the xibalbin variants modulated forskolin-induced [Ca^2+]i increase (Additional File 7: Figure S5 A). We also evaluated the effect of xibalbins on cAMP synthesis. However, xibalbins had no effect on increasing cAMP synthesis in HEK293 cells or on preventing the forskolin-induced cAMP synthesis (Additional File 7: Figure S5 B).
Supplementary file 12915_2024_1955_MOESM7_ESM.jpg: Additional file 7: Figure S5. […] A threshold of fluorescence intensity was defined using cells before treatment, all cells above the threshold level were counted. […] For the induction assay (left panel), the luminescence was detected (background, 3 measurements every 5 min) and then the xibalbins (0.25, 2.5, 25 μg/ml) or 5 μM forskolin were added to detect the luminescence (3 measurements/5 min) using a plate reader (Spark, Tecan, Männedorf, Switzerland). For the inhibition assay (right panel), the xibalbin-treated cells were incubated with 5 μM forskolin to detect the luminescence (3 measurements/5 min). […] After 24 h NO was determined in supernatants with the Griess method. […]

C=C[C@@]1(C)CC(=O)[C@]2(O)[C@@]3(C)[C@@H](O)CCC(C)(C)[C@@H]3[C@H](O)[C@H](OC(C)=O)[C@@]2(C)O1 [Forskolin, reference compound]
pRII intensity ([1]; positive control Fsk 6 µM, 5 and 30 min): increase
pRII response by neuron size ([1]; xibalbins 0.8 µg/µL): activated both small and large-sized sensory neurons
pERK1/2 intensity [2]: increase
increase of [Ca2+]i by positive control [3]: increased [Ca^2+]i
